# Earlier results in US11642396B2 (priority 2013, dated 2023).
# Tested on: H7N9 infection
# Settings: human, in vivo
smiles,measurement,value
CCOC(=O)C1=C[C@@H](OC(CC)CC)[C@H](NC(C)=O)[C@@H](N)C1 [oseltamivir],viral load in the respiratory tract of patients,reduce the viral load
